Where two headings read alike, the source gives them in different places.
What was measured:
[1] = system: PC-9 EGFR-Del19-T790M-C797S cells; test: Inhibition of proliferation of PC-9-EGFR (Del19 T790M C797S) cells, CCK-8; assay type: cell-based; conditions: 72 h, read-out: PC-9-EGFR (Del19 T790M C797S) cell inhibitory activity IC50
How it was run: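 Cells seeded at 2×10^4 cells/mL were treated 72 h with compound at 1000 nM-0.06 nM final, in replicate wells. CCK-8 absorbance at 450 nm after 2 h gave inhibition rate relative to negative control and blank. IC50 from four-parameter fit against log concentration.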

[2] = system: BAF3-EGFR (del19/T790M/C797S) cells; test: Inhibition of proliferation of BAF3-EGFR (Del19/T790M/C797S) cells, CCK-8; assay type: cell-based; conditions: 72 h, read-out: BAF3(EGFR T790M Del19 C797S) cell inhibitory activity IC50
How it was run: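 Cells seeded at 1.0×10^5 cells/mL in RPMI + 10% FBS, cultured overnight at 37° C, 5% CO2, then compound added in duplicate wells, with untreated cells as negative control. Inhibition rate calculated against negative-control and blank means. IC50 obtained from four-parameter fit of inhibition versus log concentration.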

[3] = system: NCI-H1975(L858R T790M); test: Nude mouse subcutaneous xenograft tumor model of NCI-H1975 cells; assay type: in vivo, nude mice; conditions: once a day; for Tumor growth inhibition % (tumor weight, d 18) / Tumor growth inhibition % (volume, d 15): 17 days
Source text: Evaluation on drug effect on nude mouse subcutaneous xenograft tumor model of NCI-H1975 cells: NCI-H1975 cells were inoculated subcutaneously in the right axilla of SPF-grade female nude mice (source: Jiangsu Huachuang Sino Pharmaceutical Technology Co., Ltd.) at 1×10^6 cells/mouse. When the mean tumor volume reached about 200 mm^3, the animals were grouped.
The day of grouping was defined as day 0, and intragastric administration was started on day 0 and performed once a day. The tumor volume was measured 2-3 times a week, meanwhile, the mice were weighed and the data were recorded; the general behavior of the mice was observed and recorded every day. After the experiment was completed, the tumors were removed, weighed, and photographed.
Tumor volume TV (mm^3)=½×(a×b^2),
Relative tumor volume RTV=TVt/TV0,
Relative tumor proliferation rate T/C (%)=(TRTV/CRTV)×100%,
Tumor growth inhibition rate TGI (%)=(1−TW/TW0)×100%;

| Compound | IC50 [1] | IC50 [2] | Tumor growth inhibition % (tumor weight, d 18) ([3]; 5 mpk (i.g)) | Tumor growth inhibition % (volume, d 15) ([3]; 5 mpk (i.g)) | Tumor growth inhibition % (tumor weight, d 18) ([3]; 10 mpk (i.g)) | Tumor growth inhibition % (volume, d 15) ([3]; 10 mpk (i.g)) | Tumor growth inhibition % (tumor weight, d 14) ([3]; 10 mpk (i.g), 14 days) | Tumor growth inhibition % (volume, d 12) ([3]; 10 mpk (i.g), 14 days) | IC50 ([2]; Ba/F3 EGFR-Del19/T790M/C797S) |
| --- | --- | --- | --- | --- | --- | --- | --- | --- | --- |
| Cc1cc2cc(n1)-c1cnn(C)c1OCCC[C@@H](C1CC1)CN1/C(=N/C2=O)Nc2cc(N[C@H]3CC[C@@H](N(C)C)CC3)ccc21 [Example 26] | < 50 nM | < 1 nM | – | – | – | – | – | – | – |
| Cc1cc2cc(n1)-c1cnn(C)c1OCCC[C@@H](C1CC1)CN1/C(=N/C2=O)Nc2cc(N[C@H]3CC[C@H](N(C)C)CC3)ccc21 [Example 25] | < 50 nM | < 1 nM | 31.4% (tumor | 22.5% (volume, | 75.8% (tumor | 72.5% (volume, | – | – | – |
| Cc1cc2cc(n1)-c1cnn(C)c1OCCC[C@@H](C1CC1)CN1/C(=N/C2=O)Nc2cc(N[C@H](C)C3COC3)ccc21 [Example 39] | < 50 nM | < 1 nM | – | – | – | – | 65.1% (tumor | 70.2% | – |
| Cc1cc2cc(n1)-c1cnn(C)c1OCCC[C@@H](C1CC1)CN1/C(=N/C2=O)Nc2cc(NC3(C)COC3)ccc21 [Example 29] | < 50 nM | – | 41.7% (tumor weight, | 40.0% (volume, d 15) | 83.9% (tumor | 75.0% (volume, | – | – | < 1 nM |
| Cc1cc2cc(n1)-c1cnn(C)c1OCCC[C@@H](C1CC1)CN1/C(=N/C2=O)Nc2ccc(NCCN(C)C)cc21 [Example 28] | < 50 nM | – | – | – | – | – | – | – | < 1 nM |
